We go through 1 compound from patent US20220380385A1, “PYRIMIDINE FIVE-MEMBERED NITROGEN HETEROCYCLIC DERIVATIVE, PREPARATION METHOD THEREOF AND PHARMACEUTICAL USE THEREOF” (TUOJIE BIOTECH(SHANGHAI) CO., LTD., priority 2019, published 2022).

Data set [1] is described as follows: In vivo pharmacokinetics in rats (gavage). On the set-up: species or system SD rats. The settings on record: original drug, rat, 5 mpk. The protocol: Rats were used as the test animals. The plasma drug concentration at different times after the rats were given the compounds of the invention by gavage was determined by using the LC/MS/MS method. The in vivo pharmacokinetic behavior of the compounds of the present invention in rats was studied, and pharmacokinetic characteristics thereof were evaluated.
Test animals: 3 healthy, 6-8 weeks old male SD rats in each group
A certain amount of drug was weighed, and 0.5% by mass of hypromellose, 0.1% by volume of Tween 80 and 99.4% by volume of water were added thereto to formulate a white suspension at 1 mg/mL.
SD rats were fasted overnight, then the drug was administered by gavage. The dosage of reference 1 was 7.5 mg/kg, and the dosage of Example 1 was 5 mg/kg.
Rats were administered the compounds of the present invention by gavage. At 0.25, 0.5, 1, 2, 4, 8 and 24 hours after administration, 0.2 mL of blood was collected from the jugular vein and placed in a test tube containing EDTA-K2. The tube was centrifuged at 4° C., 4000 rpm for 5 minutes to separate the plasma, which was stored at −75° C.
Determination of the content of the test compounds in rat plasma after administration of different concentrations of drugs by gavage: 50 μL of rat plasma at each time after administration was taken, and 200 μL of a solution of the internal standard dexamethasone in acetonitrile (50 ng/mL). The mixture was mixed by vortexing for 30 seconds, centrifuged at 4° C., 4700 rpm for 15 minutes. The supernatant of the plasma samples were collected and diluted three times with water, and 2.0 μL was taken for the LC/MS/MS analysis.

Another data set addresses T1, CYP2C9 (Homo sapiens, UniProt P11712).
T1 construct: Mixed human liver microsomes from 150 donors; tissue Corning 452117; host or cells: pooled human liver microsomes (150 donors)
Briefly: CYP inhibition in mixed human liver microsomes, CYP2C9 (diclofenac sodium). The class given is in vitro ADME. The method, then: (§1) Mixed human liver microsomes from 150 donors (purchased from Corning, catalog number 452117) were used to evaluate the representative substrate metabolic responses of the five main human CYP subtypes (CYP1A2, CYP2C9, CYP2C19, CYP2D6 and CYP3A4/5). The influence of different concentrations of test compounds on the metabolic responses of phenacetin (CYP1A2), diclofenac sodium (CYP2C9), S-mephenytoin (CYP2C19), bufurolol hydrochloride (2D6) and midazolam (CYP3A4/5) was determined by liquid chromatography tandem mass spectrometry (LC/MS/MS).
(§2) 200 μL of the reaction system (100 mmol/L phosphate buffer, pH 7.4, containing 0.3% DMSO, 0.6% acetonitrile and 0.1% methanol by volume respectively) with 30 µM phenacetin, 10 μM diclofenac sodium, 35 μM S-mephenytoin, 5 μM bufurolol hydrochloride, 3 μM midazolam, 1 mM NADPH, test compound (at a concentration of 0.1, 0.3, 1, 3, 10 and 30 μmol/L respectively) or positive compound or blank control and mixed human liver microsomes (0.2 mg/mL) was incubated at 37° C. for 5 minutes. […]
(§3) The peak area was calculated based on the chromatograms. The residual activity ratio (%) was calculated using the following equation: […]
(§4) The CYP median inhibitory concentration (IC50) was calculated by Excel XLfit 5.3.1.3.
For orientation: Microsomes from liver hold many membrane-bound enzymes, among them those of drug oxidation.

For a further data set, the target named is T2, CYP2C19 (Homo sapiens, UniProt P33261).
T2 construct: Mixed human liver microsomes from 150 donors; tissue Corning 452117; host or cells: pooled human liver microsomes (150 donors)
T2 sequence (P33261 whole entry): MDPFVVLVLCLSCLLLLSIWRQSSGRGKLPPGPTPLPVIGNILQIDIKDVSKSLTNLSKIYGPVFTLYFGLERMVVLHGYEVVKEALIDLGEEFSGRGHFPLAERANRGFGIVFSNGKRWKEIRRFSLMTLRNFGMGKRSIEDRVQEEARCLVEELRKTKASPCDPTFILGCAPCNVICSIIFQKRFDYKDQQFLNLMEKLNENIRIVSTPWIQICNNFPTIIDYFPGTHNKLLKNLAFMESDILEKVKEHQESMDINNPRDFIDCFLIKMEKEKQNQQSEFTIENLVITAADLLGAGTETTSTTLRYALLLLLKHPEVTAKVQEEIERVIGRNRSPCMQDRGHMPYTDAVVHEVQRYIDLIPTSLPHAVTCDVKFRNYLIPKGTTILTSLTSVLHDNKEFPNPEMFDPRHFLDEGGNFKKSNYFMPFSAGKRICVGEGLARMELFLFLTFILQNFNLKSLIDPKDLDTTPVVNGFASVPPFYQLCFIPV
Briefly: CYP inhibition in mixed human liver microsomes, CYP2C19 (S-mephenytoin). It counts as in vitro ADME. The method, then:
as §1, §2, §3, §4

The target of data set [2] is T3, full-length SHP2 (aa 1-593) (Homo sapiens, UniProt Q06124).
T3 sequence (Q06124 1-593): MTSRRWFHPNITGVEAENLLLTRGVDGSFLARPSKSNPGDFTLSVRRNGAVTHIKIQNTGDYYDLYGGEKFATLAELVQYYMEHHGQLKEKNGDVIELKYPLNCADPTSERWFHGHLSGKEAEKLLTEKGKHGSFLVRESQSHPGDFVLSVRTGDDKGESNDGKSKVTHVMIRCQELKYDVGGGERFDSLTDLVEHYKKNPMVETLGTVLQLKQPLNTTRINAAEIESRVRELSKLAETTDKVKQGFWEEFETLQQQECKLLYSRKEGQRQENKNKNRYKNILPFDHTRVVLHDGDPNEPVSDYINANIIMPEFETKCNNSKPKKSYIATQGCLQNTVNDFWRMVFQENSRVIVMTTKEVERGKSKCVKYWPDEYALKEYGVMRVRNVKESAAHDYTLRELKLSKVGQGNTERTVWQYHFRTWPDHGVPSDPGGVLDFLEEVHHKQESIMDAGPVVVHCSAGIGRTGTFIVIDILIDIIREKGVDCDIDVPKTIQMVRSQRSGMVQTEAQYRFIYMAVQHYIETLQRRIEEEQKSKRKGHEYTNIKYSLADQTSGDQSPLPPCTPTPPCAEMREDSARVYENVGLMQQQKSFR
Briefly: Activity on SHP2 phosphatase (DiFMUP fluorescence).
Description: 0.2 nM recombinantly expressed full-length SHP2 (aa 1-593), 0.5 nM activated polypeptide IRS1 with dual phosphorylation sites (sequence: H2N-LN(pY)IDLDLY(dPEG8)LST(pY)ASINFQK-amide), and a series of concentrations of the test compound (final concentrations of 1 μM, 0.3 μM, 0.1 μM, 0.03 μM, 0.01 μM, 0.003 μM, 0.001 M, 0.0003 μM, 0.0001 μM and 0.00003 μM) were added into the phosphatase reaction solution (60 mM HEPES, PH 7.5 0.005% Brij-35, 75 mM NaCl, 75 mM KCl, 1 mM EDTA, 5 mM DTT), followed by shaking (350 rpm) at room temperature for 30 minutes. Then the reaction substrate DiFMUP was added at a final concentration of 30 μM, and the reaction solution was reacted at room temperature for 30 minutes. Then the phosphatase reaction was stopped by adding 5 μL of the reaction stop solution (60 mM HEPES, pH 7.5, 0.2% SDS). Ex358 nm/Em455 fluorescence value was read on the fluorescence plate reader MD SpectraMax.
The IC50 value of compounds was calculated by using the four-parameter logit method. […] Different concentrations correspond to different inhibition rates of phosphatase activity. A reverse curve was plotted and the IC50 of the inhibitors was calculated from the curve. The IC50 of compounds was calculated by using Primer premier 6.0.

T1 sequence (P11712 whole entry): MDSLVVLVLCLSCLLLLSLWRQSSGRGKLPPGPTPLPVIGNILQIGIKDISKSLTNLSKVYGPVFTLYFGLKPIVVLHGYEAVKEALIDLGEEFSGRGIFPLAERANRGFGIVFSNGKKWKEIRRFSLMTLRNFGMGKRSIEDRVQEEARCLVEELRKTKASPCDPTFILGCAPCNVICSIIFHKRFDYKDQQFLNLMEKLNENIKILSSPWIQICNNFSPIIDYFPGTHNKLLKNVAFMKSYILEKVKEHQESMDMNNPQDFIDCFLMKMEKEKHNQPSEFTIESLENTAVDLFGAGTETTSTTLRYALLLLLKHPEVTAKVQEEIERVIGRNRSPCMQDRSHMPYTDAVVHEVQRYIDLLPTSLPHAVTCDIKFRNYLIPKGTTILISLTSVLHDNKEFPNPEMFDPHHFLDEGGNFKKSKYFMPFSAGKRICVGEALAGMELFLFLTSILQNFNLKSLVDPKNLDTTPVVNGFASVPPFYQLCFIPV

For the compound `[2H]C([2H])([2H])Nc1nccc(Sc2c(C)nc(N3CCC4(CC3)Cc3ncccc3[C@H]4N)n3ccnc23)c1Cl` [Example 3, (S)-1′-(8-((3-Chloro-2-((methyl-d3)amino)pyridin-4-yl)thio)-7-methylimidazo[1,2-c]pyrimidin-5-yl)-5,7-dihydrospiro[cyclopenta[b]pyridine-6,4′-piperidin]-5-amine], the AUC in data set [1] (male, SD, plasma, po, 5 mg/kg, read-out: Area under curve AUC) worked out at 3.82 µg·h/mL. Moreover, in data set [1] (male, SD, plasma, po, 5 mg/kg, read-out: Maximum blood conc. Cmax), the Cmax came out at 0.445 µg/mL. In data set [1], the “Area under curve of unit dose AUC/D” value was found to be 764 ng*h/mL per mg/kg. The 50% inhibitory concentration (IC50) is over 20 µM on CYP2C9, over 20 µM on CYP2C19 and 0.0045 µM in data set [2].

Usually AUC stands for the area under the concentration-time curve, a measure of exposure. In general, Cmax refers to the highest concentration seen after dosing. By IC50 is commonly meant the concentration needed to halve the response being measured. Higher therefore signals weaker potency.
